Measurements from ChEMBL document CHEMBL1153810, “Sesquiterpene lactones from the root tubers of Lindera aggregata” (J Nat Prod, 2009).

These compounds were tested on HepG2 (assay: Hepatoprotective activity in human HepG2 cells assessed as inhibition of H2O2- induced oxidative damage after 3 hrs by leucocrstal violet dye treated 1 hr before H2O2 challenge).
Format: functional, cell-based

Row | Compound | EC50
1 | C=C1CC=C[C@]2(C)C[C@]3(O)OC(=O)C(C)C3=C[C@@H]12 (some centres undefined) [HYDROXYLINDESTENOLIDE] | 42.4 µM
2 | CC1=CC[C@@H](O)[C@]2(C)CC3(O)OC(=O)C(C)=C3[C@H](O)[C@@H]12 (some centres undefined) [LINDERAGALACTONE E] | 67.5 µM
3 | C/C1=C\CCC2=C[C@@H](OC2=O)c2c(C)coc2C1 [LINDERALACTONE] | 98 µM
4 | C/C1=C\CC[C@]23O[C@H]2[C@@H](OC3=O)c2c(C)coc2C1 [LINDERANE] | 167 µM
